Experiments:
SGLT1 = target: T1, SGLT1 (Homo sapiens, UniProt P13866); assay: SGLT1 activity measurement: 14C-AMG uptake in BHK cells transfected with SGLT1; format: cell-based; settings: AMG 50 μM, 37° C., 90 min
T1 construct: expressed in transfected cells
T1 sequence (P13866 1-664): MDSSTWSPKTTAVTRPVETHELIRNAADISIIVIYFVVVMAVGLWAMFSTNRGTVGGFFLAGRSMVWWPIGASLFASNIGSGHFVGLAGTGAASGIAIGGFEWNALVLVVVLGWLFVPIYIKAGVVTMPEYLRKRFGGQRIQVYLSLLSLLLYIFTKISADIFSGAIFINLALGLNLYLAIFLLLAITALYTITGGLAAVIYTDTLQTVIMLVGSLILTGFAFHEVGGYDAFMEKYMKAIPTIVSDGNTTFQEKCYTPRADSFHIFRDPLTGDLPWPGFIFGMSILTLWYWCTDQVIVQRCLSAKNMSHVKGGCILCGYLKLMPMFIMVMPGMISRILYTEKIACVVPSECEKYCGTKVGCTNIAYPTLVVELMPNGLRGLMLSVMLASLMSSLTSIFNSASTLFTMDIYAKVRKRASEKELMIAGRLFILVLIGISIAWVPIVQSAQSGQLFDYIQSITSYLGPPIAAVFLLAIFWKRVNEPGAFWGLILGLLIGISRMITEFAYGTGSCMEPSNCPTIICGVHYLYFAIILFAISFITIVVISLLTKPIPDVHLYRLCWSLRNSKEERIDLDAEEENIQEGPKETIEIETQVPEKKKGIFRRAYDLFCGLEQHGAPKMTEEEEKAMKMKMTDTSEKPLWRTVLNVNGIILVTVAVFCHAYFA
Excerpt: (§1) The compounds can be tested on their SGLT inhibition properties by means of BHK cells expressing SGLT1 and SGLT2. The production of the cells and the testing can be carried out as described below.
To construct the SGLT1 expression vector (KL225), the SLC5A1 gene (homologous to NM_000343) was amplified from a cDNA library using standard PCR technology and cloned over NheI/XhoI sites into pcDNA3.1 expression vector (Invitrogen) containing neomycin as a selection marker. In this vector, transcription uses the enhancer/promoter of human cytomegalovirus.
The final vector KL225 together with an additional vector containing a dihydrofolate reductase gene as a selection marker was introduced into cells. Transfection into BHK21 cells (ATCC CCL-10), cultivated in DMEM medium (GIBCO/BRL), supplemented with 10% foetal calf serum (FCS) and 20 mM glutamine, was carried out using calcium phosphate transfections according to Graham, F. L. and van der Ebb, A. J. (1973), Virology 52: 456 with 5-20 μg of uncut plasmids for 10^7 cells. Stable transfectants were selected in medium containing 1 mg/ml of G418 (GIBCO/BRL) and 20-5000 nM methotrexate as final concentration, where only cells which expressed the neomycin gene and overexpressed the dhfr gene were able to grow. After growth for 2-3 weeks, the cells were cloned (0.5 cells/well) and the clones were investigated for SGLT expression in the radioactive uptake assay. […]
(§2) A 96-well cell-based assay was developed and adapted to HTS requirements:
(§3) BHK cells (transfected with SGLT1 or SGLT2) were seeded into 96-well microtitre plates (Cultureplates, Perkin Elmer). After at least 24 h, medium was removed and the cell layer was washed with assay buffer (140 mM NaCl, 2 mM KCl, 1 mM CaCl2, 1 mM MgCl2, 10 mM HEPES, 5 mM Tris, adjusted with 1 M KOH to pH 7.4). After addition of 40 μl of assay buffer, 50 μl of AMG (50 μM for SGLT1 and 2 mM for SGLT2) in the presence or absence of compounds, the cells were incubated in a total volume of 100 μl at 37° C. for 90 min. Supernatant was removed by suction and discarded. The cells were washed and lysed by addition of 50 μl water. After 10 minutes at room temperature 200 μl Microscint 40 (Perkin Elmer) were added. The radioactivity was counted in a Topcount microplate scintillation counter (Perkin Elmer). The non-specific uptake was determined in sodium-free assay buffer (266 mM sucrose, 2 mM KCl, 1 mM CaCl2, 1 mM MgCl2, 10 mM HEPES, 5 mM Tris, adjusted with 1 M KOH to pH 7.4).

SGLT2 = target: T2, SGLT2 (Homo sapiens, UniProt P31639); assay: SGLT2 activity measurement: 14C-AMG uptake in BHK cells transfected with SGLT2; format: cell-based; settings: AMG 2 mM, 37° C., 90 min
T2 construct: expressed in transfected cells
T2 sequence (P31639 1-672): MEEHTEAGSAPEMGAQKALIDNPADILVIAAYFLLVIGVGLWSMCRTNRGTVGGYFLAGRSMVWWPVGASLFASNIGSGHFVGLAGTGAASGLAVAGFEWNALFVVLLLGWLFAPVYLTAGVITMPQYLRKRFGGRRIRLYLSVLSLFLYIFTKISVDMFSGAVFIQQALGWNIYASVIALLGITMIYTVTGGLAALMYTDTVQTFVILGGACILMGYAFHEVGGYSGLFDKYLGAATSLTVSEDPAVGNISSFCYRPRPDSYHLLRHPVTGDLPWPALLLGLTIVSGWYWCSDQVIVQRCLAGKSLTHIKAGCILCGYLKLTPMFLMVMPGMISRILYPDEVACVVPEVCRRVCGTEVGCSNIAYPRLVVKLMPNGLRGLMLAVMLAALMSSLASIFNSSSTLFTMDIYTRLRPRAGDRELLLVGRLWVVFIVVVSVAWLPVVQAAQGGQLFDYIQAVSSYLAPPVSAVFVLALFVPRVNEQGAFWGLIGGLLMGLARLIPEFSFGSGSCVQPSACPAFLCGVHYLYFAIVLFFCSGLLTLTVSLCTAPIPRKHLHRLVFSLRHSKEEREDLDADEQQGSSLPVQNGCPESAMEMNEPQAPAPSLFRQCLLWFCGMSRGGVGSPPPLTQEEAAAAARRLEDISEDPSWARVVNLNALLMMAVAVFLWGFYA
Excerpt: as §1
To construct the SGLT2 expression vector (KL224), the SLC5A2 gene (homologous to NM_003041) was amplified from a cDNA library using standard PCR technology and cloned over NheI/XhoI sites into PCI-neo expression vector (Promega) containing neomycin as a selection marker. In this vector, transcription used the enhancer/promoter of human cytomegalovirus and the SV40 polyadenylation signal.
The final vector KL224 together with an additional vector containing a dihydrofolate reductase gene as a selection marker was introduced into cells. Transfection into BHK21 cells (ATCC CCL-10), cultivated in DMEM medium (GIBCO/BRL), supplemented with 10% foetal calf serum (FCS) and 20 mM glutamine, was carried out using calcium phosphate transfections according to Graham, F. L. and van der Ebb, A. J. (1973), Virology 52: 456 with 5-20 μg of uncut plasmids for 10^7 cells. Stable transfectants were selected in medium containing 1 mg/ml of G418 (GIBCO/BRL) and 20-5000 nM methotrexate as final concentration, where only cells which expressed the neomycin gene and overexpressed the dhfr gene were able to grow. After growth for 2-3 weeks, the cells were cloned (0.5 cells/well) and the clones were investigated for SGLT expression in the radioactive uptake assay.
Principally, uptake of ^14C-α-methyl-D-glucopyranoside (AMG) in, for example, Xenopus oocytes injected with the corresponding cRNA has been described (for example Wen-Sen Lee et al. (1994), J. Biol. Chem. 269, 12032-12039; Guofeng You et al. (1995), J. Biol. Chem. 270, 29365-29371).
as §2, §3

| Compound | IC50 (SGLT1) [µM] | IC50 (SGLT2) [µM] |
| --- | --- | --- |
| Cc1cccc(C)c1Nc1c(-c2c(C)cc(OCC(N)=O)cc2OCC(N)=O)nc2ccc(F)cn12 [Compound A178, 2-[2-(Aminocarbonylmethoxy)-4-(amino-carbonylmethoxy)-6-methylphenyl]-3-(2,6-dimethylphenylamino)-6-fluoroimidazo[1,2-a]-pyridine] | > 10 | 0.01 to 1 |
| Cc1cccc(C)c1Nc1c(-c2ccc([N+](=O)[O-])cc2OCC(N)=O)nc2ccccn12 [Compound A179, 2-[2-(Aminocarbonylmethoxy)-4-nitrophenyl]-3-(2,6-dimethylphenylamino)imidazo[1,2-a]pyridine] | > 10 | 0.01 to 1 |
| Cc1cccc(C)c1Nc1c(-c2c(OCC(N)=O)ccc3ccccc23)nc2ccc(F)cn12 [Compound A180, 2-{1-[3-(2,6-Dimethylphenylamino)-6-fluoro-imidazo[1,2-a]pyridin-2-yl]naphthalen-2-yloxy}-acetamide] | 1 to 10 | 0.01 to 1 |
| CCc1cc(OC2CCCCO2)cc(OCC(N)=O)c1-c1nc2ccc(F)cn2c1Nc1c(C)cccc1C (stereo not drawn) [Compound A182, 2-[2-(Aminocarbonylmethoxy)-4-(tetra-hydropyran-2-yloxy)-6-ethylphenyl]-3-(2,6-dimethylphenylamino)-6-fluoroimidazo[1,2-a]-pyridine] | > 10 | 0.01 to 1 |
| COC(=O)Cc1ccc(OCC(N)=O)c(-c2nc3ccccn3c2Nc2c(C)cccc2C)c1 [Compound A183, 2-[2-(Aminocarbonylmethoxy)-5-(methoxycarbonylmethyl)phenyl]-3-(2,6-dimethylphenylamino)imidazo[1,2-a]pyridine] | > 10 | 1 to 10 |
| CCc1cc(OC)cc(OCC(N)=O)c1-c1nc2ccc(F)cn2c1Nc1c(C)cccc1C [Compound A185, 2-[2-(Aminocarbonylmethoxy)-4-methoxy-6-ethylphenyl]-3-(2,6-dimethylphenylamino)-6-fluoroimidazo[1,2-a]pyridine] | 1 to 10 | 0.01 to 1 |
| CCc1cc(OCCOC)cc(OCC(N)=O)c1-c1nc2ccc(F)cn2c1Nc1c(C)cccc1C [Compound A187, 2-[2-(Aminocarbonylmethoxy)-4-(2-methoxy-ethoxy)-6-ethylphenyl]-3-(2,6-dimethylphenyl-amino)-6-fluoroimidazo[1,2-a]pyridine] | > 10 | 0.01 to 1 |
| COc1ccc(-c2nc3ccc(F)cn3c2Nc2c(C)cccc2C)c(OCC(N)=O)c1OC [Compound A188, 2-[2-(Aminocarbonylmethoxy)-3,4-dimethoxy-phenyl]-3-(2,6-dimethylphenylamino)-6-fluoro-imidazo[1,2-a]pyridine] | > 10 | 1 to 10 |
| COc1cc(C)c(-c2nc3c(N)cccn3c2Nc2c(C)cccc2C)c(OCC(N)=O)c1 [Compound A191, 2-[2-(Aminocarbonylmethoxy)-4-methoxy-6-methylphenyl]-3-(2,6-dimethylphenylamino)-8-aminoimidazo[1,2-a]pyridine] | > 10 | 0.01 to 1 |
| CCc1cc(OC)cc(OCC(N)=O)c1-c1nc2c(N)cccn2c1Nc1c(C)cccc1C [Compound A192, 2-[2-(Aminocarbonylmethoxy)-4-methoxy-6-ethylphenyl]-3-(2,6-dimethylphenylamino)-8-aminoimidazo[1,2-a]pyridine] | > 10 | 0.01 to 1 |

More lines, now with the values ahead:

| IC50 (SGLT1) [µM] | IC50 (SGLT2) [µM] | Compound |
| --- | --- | --- |
| 1 to 10 | 0.01 to 1 | Cc1cccc(C)c1Nc1c(-c2c(OCC(N)=O)ccc3ccccc23)nc2ccccn12 [Compound A181, 2-{1-[3-(2,6-Dimethylphenylamino)imidazo-[1,2-a]pyridin-2-yl]naphthalen-2-yloxy}acetamide] |
| > 10 | 0.01 to 1 | COCCOc1cc(C)c(-c2nc3ccc(F)cn3c2Nc2c(C)cccc2C)c(OCC(N)=O)c1 [Compound A184, 2-[2-(Aminocarbonylmethoxy)-4-(2-methoxy-ethoxy)-6-methylphenyl]-3-(2,6-dimethylphenyl-amino)-6-fluoroimidazo[1,2-a]pyridine] |
| > 10 | 0.01 to 1 | Cc1cccc(C)c1Nc1c(-c2c(C)cc(OCCO)cc2OCC(N)=O)nc2ccc(F)cn12 [Compound A186, 2-[2-(Aminocarbonylmethoxy)-4-(2-hydroxy-ethoxy)-6-methylphenyl]-3-(2,6-dimethylphenyl-amino)-6-fluoroimidazo[1,2-a]pyridine] |
| > 10 | 0.01 to 1 | Cc1cccc(C)c1Nc1c(-c2c(C)cc(OC3COC(=O)O3)cc2OCC(N)=O)nc2ccc(F)cn12 (stereo not drawn) [Compound A190, 2-[2-(Aminocarbonylmethoxy)-4-(2-oxo-1,3-dioxolan-4-yloxy)-6-methylphenyl]-3-(2,6-dimethylphenylamino)-6-fluoroimidazo[1,2-a]-pyridine] |
| > 10 | 1 to 10 | CCc1cc(OC)cc(OCC(N)=O)c1-c1nc2c(O)cccn2c1Nc1c(C)cccc1C [Compound A194, 2-[2-(Aminocarbonylmethoxy)-4-methoxy-6-ethylphenyl]-3-(2,6-dimethylphenylamino)-8-hydroxyimidazo[1,2-a]pyridine] |
